Values of other authors in patent publication US12508229B2, “Method for preparing stable peptide formulations” (Amphastar Pharmaceuticals, Inc., priority 2019, dated 2025).

| Compound | aqueous solubility | aqueous solubility (in words) |
| --- | --- | --- |
| OC[C@H]1O[C@@H]2O[C@H]3[C@H](O)[C@@H](O)[C@@H](O[C@H]4[C@H](O)[C@@H](O)[C@@H](O[C@H]5[C@H](O)[C@@H](O)[C@@H](O[C@H]6[C@H](O)[C@@H](O)[C@@H](O[C@H]7[C@H](O)[C@@H](O)[C@@H](O[C@H]1[C@H](O)[C@H]2O)O[C@@H]7CO)O[C@@H]6CO)O[C@@H]5CO)O[C@@H]4CO)O[C@@H]3CO [α-CD, α-cyclodextrin] | about 5 wt % |  |
| OC[C@H]1O[C@@H]2O[C@H]3[C@H](O)[C@@H](O)[C@@H](O[C@H]4[C@H](O)[C@@H](O)[C@@H](O[C@H]5[C@H](O)[C@@H](O)[C@@H](O[C@H]6[C@H](O)[C@@H](O)[C@@H](O[C@H]7[C@H](O)[C@@H](O)[C@@H](O[C@H]8[C@H](O)[C@@H](O)[C@@H](O[C@H]9[C@H](O)[C@@H](O)[C@@H](O[C@H]1[C@H](O)[C@H]2O)O[C@@H]9CO)O[C@@H]8CO)O[C@@H]7CO)O[C@@H]6CO)O[C@@H]5CO)O[C@@H]4CO)O[C@@H]3CO [γ-cyclodextrin] |  | freely soluble in water |
| hydroxypropyl β-cyclodextrin [HP-ß-CD] |  | higher aqueous solubility than α-CD |
